Test results from patent US20240190854A1, “PYRIMIDINE OR PYRIDINE DERIVATIVES USEFUL AS HCN2 MODULATORS” (King's College London, priority 2021, published 2024).
pIC50: −log10 of the molar value. Entries after “also recorded” stand apart in the source; their conditions may differ. Where a name gives a salt, the structure may show the parent alone.

Experiments:
[1] = tested on: mouse neuropathic pain model (partial sciatic nerve ligation); assay: Mouse neuropathic pain model (PSNL), von Frey filament; type: in vivo; details: for Mechanical analgesia (von Frey): day 5 after PSNL
Procedure: The model used was analogous to the model described in Seltzer Z, Dubner R, & Shir Y (1990), A novel behavioural model of neuropathic pain disorders produced in rats by partial sciatic nerve injury, Pain 43: 205-218). […] Sci Transl Med 9: eaam6072.
The mechanical pain threshold was measured by manual von Frey filament applied to hind paw on the operated side, using the “up-down” method.
Mechanical pain threshold was measured as in Example 133 1 day before and 8 days after partial sciatic nerve ligation (PSNL) neuropathic pain induction. The test compound was administered at a low dose of 0.2 mg/kg every two hours with a control arm of vehicle only injections.
Mechanical pain threshold was measured as in Example 133 1 day before and 5-8 days after partial sciatic nerve ligation (PSNL) neuropathic pain induction. The test compound was administered at a dose of 0.5 mg/kg twice-daily at 8 hour intervals with a control arm of vehicle only injections, and mechanical pain threshold was measured 4 hours after the first injection.

[2] = tested on: mouse neuropathic pain model (partial sciatic nerve ligation); assay: Mouse neuropathic pain model, paw pressure (Randall Sellito test); type: in vivo
[3] = molecular target: hERG channel (Homo sapiens (Human), UniProt Q12809); assay: hERG assay using Sophion Qube; type: cell-based; details: Sophion Qube protocol; read-out: SQ hERG IC50
Procedure: Example 127B, Using Sophion Qube
Solutions for recording hERG currents were:
This voltage protocol was applied every 15 seconds for the duration of the experiment. Both the vehicle and 1st compound addition periods were applied for 10 sweeps. The 2nd compound addition period was applied for 20 sweeps. The compound concentration was added to the test well twice to assure complete exchange of the external buffer with the test compound. In total, compound was applied to the well for 450 seconds.

[4] = molecular target: MDR1 (P-glycoprotein) (Homo sapiens (Human), UniProt P08183); assay: in vitro; details: dog, MDCK-MDR1, pH 7.4
Procedure: Test compounds were added (10 μM, 0.1% DMSO final, n=2) to donor compartments of the Transwell plate assembly in assay buffer (Hanks balanced salt solution supplemented with 25 mM HEPES, adjusted to pH 7.4) for both apical to basolateral (A>B) and basolateral to apical (B>A) measurements. A parallel series of incubations were performed in the presence of the transporter inhibitor elacridar (5 μM) which was added to both compartments in the transwell plate. Incubations were performed at 37° C., with samples removed from both donor and acceptor chambers at T=0 and 1 hour for recovery assessment and compound analysed by mass spectrometry (LC-MS/MS), including an analytical internal standard.
Apparent permeability (Papp) values were determined from the relationship:
Where V is the volume of each Transwell compartment (apical 125 μL, basolateral 600 μL), and concentrations are the relative MS responses for compound (normalized to internal standard) in the donor chamber before incubation and acceptor chamber at the end of the incubation.
Area=area of cells exposed for drug transfer (0.33 cm2).
Efflux ratios (Papp B>A/Papp A>B) were calculated for each compound from the mean Papp values in each direction. […] The efflux ratios were also calculated in the same way from the runs carried out in the presence of the inhibitor. The net flux is the ratio of the efflux in the absence of inhibitor to that in the presence of inhibitor.
Lucifer Yellow (LY) was added to the apical buffer in all wells to assess viability of the cell layer.
Compound recovery from the wells was determined from MS responses (normalized to internal standard) in donor and acceptor chambers at the end of incubation compared to response in the donor chamber pre-incubation.

[5] = molecular target: hNav1.5 (Homo sapiens (Human), UniProt Q14524)
Procedure: The cells were held at −100 mV followed by a depolarising step to −10 mV for 100 milliseconds before stepping back to −100 mV, this represents 1 experimental sweep.
For tonic block (0.1 Hz), the peak currents evoked by the step to −10 mV were measured for the analysis of the percentage inhibition by test compounds. For use-dependent block (4 Hz), the peak current evoked at the 20th depolarising step to −10 mV was measured for the analysis of the percentage inhibition by test compounds. Peak currents were first normalised to the vehicle addition (0.3% DMSO) in the same well.

[6] = molecular target: HCN4 (Homo sapiens (Human), UniProt Q9Y3Q4); assay: HCN4 current assay using the Sophion Qube; type: cell-based; details: Sophion Qube protocol; read-out: SQ HCN4 IC50
Procedure: (§1) Example 126B, Using the Sophion Qube
(§2) Solutions for recording HCN currents were:
(§3) This voltage protocol was applied every 20 seconds for the duration of the experiment. Both the vehicle (0.3% DMSO) and full block (3 mM CsCl) addition periods were applied for 10 experimental sweeps each.
(§4) The current amplitudes were measured by subtracting metric A from metric B (see FIG. 2) with inhibition calculated by normalising to the vehicle addition (0.3% DMSO) and full inhibition by 3 mM CsCl in the same well.
(§5) In total, compound was applied to the well for 600 seconds.

[7] = molecular target: HCN2 (Homo sapiens (Human), UniProt Q9UL51); assay: HCN2 current assay using the Sophion Qube; type: cell-based; details: Sophion Qube protocol; read-out: SQ HCN2 IC50
Procedure: as §1, §2, §3, §4, §5

[8] = molecular target: HCN1 (Homo sapiens (Human), UniProt O60741); assay: HCN1 current assay using the Sophion Qube; type: cell-based; details: Sophion Qube protocol; read-out: SQ HCN1 IC50
Procedure: as §1, §2, §3, §4, §5

[9] = tested on: guinea pigs, salicylate-induced tinnitus; assay: GPIAS test, short-term salicylate tinnitus model; type: in vivo, guinea pig; details: salicylate 350 mg/kg i.p.; ivabradine 5 mg/kg s.c.
From the text: (§6) Tinnitus in guinea pigs was monitored using the gap induced inhibition of the acoustic startle (GPIAS) test (see FIG. 5). GPIAS is reduced when tinnitus was present; see Berger, J. I. et al. Effects of the cannabinoid CB1 agonist ACEA on salicylate ototoxicity, hyperacusis and tinnitus in guinea pigs. Hearing research, (2017), and Coomber, B. et al. Neural changes accompanying tinnitus following unilateral acoustic trauma in the guinea pig. Eur J Neurosci 40, 2427-2441, (2014).
(§7) In FIG. 5, sound stimulus (above) and corresponding pinna reflex (below) are shown in freely moving guinea pigs. Stimuli with no gap and gap are presented in a randomised order. Traces contaminated by movement (the upper trace in “no gap”) were removed before analysis.
Tinnitus was induced within 1-2 hours in humans by high doses of salicylate. A similar short-term tinnitus model was implemented in guinea pigs by i.p. injection of salicylate. In all animals, salicylate caused behavioural inhibition of GPIAS (see bar 2 in FIG. 6).
Salicylate (350 mg/kg, i.p.) impairs behavioural gap detection 2 h after salicylate administration (see bar 2 in of FIG. 6). Gap detection was restored by blocking HCN channels with ivabradine (5 mg/kg, s.c.).

[10] = tested on: Black6 mice; details: mouse, in vivo; cited from earlier work
[11] = tested on: mice, normal hearing; type: in vivo; details: adult mice; Example 29 at 20 mg/kg ip
[12] = tested on: guinea pigs, noise-exposure tinnitus; assay: GPIAS test, noise-exposure tinnitus model; type: in vivo, guinea pig
From the text: as §6, §7
The noise-exposure model is more clinically relevant than the salicylate model, as it parallels a common cause of tinnitus in humans. A second important point is that it is long-term, while tinnitus induced by salicylate is rapidly reversed following salicylate exposure.

[13] = CNS penetration: plasma, brain and auditory nerve levels; type: in vivo; details: guinea pig, auditory nerve, other: injection; 30 min after injection, n=2, preliminary; read-out: Ratio of total concentrations auditory nerve : plasma
Procedure: Ivabradine in guinea pig plasma, brain (somatosensory cortex) and auditory nerve were assayed at 30 min after injection, the time used in Example 130.

Chain of hERG channel (Q12809 whole entry): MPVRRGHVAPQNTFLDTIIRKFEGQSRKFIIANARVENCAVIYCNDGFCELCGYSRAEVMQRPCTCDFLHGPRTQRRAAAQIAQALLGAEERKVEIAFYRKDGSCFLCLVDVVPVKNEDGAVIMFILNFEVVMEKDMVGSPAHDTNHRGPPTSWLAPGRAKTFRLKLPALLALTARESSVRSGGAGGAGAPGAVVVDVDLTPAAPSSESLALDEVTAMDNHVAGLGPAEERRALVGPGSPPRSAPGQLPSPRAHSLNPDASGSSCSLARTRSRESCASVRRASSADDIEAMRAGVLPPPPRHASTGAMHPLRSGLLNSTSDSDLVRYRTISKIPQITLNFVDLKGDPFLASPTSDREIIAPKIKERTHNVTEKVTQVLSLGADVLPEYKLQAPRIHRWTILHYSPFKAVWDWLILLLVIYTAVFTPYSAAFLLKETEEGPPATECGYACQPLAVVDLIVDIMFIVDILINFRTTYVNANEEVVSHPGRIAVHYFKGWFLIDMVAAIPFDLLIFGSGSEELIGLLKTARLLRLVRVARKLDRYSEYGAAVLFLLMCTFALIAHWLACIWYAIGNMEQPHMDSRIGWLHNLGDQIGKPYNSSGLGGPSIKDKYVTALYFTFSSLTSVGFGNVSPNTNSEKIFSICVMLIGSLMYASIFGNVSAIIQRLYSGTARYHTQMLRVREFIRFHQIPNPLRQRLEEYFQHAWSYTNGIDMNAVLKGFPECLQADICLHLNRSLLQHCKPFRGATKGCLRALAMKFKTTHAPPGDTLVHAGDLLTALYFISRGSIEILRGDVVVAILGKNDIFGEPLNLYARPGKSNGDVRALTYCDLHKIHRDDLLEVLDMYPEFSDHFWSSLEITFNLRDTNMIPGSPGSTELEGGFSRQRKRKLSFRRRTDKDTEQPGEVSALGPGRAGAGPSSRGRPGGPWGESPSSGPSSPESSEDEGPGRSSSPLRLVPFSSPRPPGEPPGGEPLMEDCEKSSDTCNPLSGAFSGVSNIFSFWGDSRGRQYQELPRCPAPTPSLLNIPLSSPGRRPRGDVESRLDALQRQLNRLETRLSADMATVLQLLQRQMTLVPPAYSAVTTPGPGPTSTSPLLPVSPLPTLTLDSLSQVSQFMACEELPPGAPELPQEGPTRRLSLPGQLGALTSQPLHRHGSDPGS
Chain of HCN4 (Q9Y3Q4 whole entry, species assumed): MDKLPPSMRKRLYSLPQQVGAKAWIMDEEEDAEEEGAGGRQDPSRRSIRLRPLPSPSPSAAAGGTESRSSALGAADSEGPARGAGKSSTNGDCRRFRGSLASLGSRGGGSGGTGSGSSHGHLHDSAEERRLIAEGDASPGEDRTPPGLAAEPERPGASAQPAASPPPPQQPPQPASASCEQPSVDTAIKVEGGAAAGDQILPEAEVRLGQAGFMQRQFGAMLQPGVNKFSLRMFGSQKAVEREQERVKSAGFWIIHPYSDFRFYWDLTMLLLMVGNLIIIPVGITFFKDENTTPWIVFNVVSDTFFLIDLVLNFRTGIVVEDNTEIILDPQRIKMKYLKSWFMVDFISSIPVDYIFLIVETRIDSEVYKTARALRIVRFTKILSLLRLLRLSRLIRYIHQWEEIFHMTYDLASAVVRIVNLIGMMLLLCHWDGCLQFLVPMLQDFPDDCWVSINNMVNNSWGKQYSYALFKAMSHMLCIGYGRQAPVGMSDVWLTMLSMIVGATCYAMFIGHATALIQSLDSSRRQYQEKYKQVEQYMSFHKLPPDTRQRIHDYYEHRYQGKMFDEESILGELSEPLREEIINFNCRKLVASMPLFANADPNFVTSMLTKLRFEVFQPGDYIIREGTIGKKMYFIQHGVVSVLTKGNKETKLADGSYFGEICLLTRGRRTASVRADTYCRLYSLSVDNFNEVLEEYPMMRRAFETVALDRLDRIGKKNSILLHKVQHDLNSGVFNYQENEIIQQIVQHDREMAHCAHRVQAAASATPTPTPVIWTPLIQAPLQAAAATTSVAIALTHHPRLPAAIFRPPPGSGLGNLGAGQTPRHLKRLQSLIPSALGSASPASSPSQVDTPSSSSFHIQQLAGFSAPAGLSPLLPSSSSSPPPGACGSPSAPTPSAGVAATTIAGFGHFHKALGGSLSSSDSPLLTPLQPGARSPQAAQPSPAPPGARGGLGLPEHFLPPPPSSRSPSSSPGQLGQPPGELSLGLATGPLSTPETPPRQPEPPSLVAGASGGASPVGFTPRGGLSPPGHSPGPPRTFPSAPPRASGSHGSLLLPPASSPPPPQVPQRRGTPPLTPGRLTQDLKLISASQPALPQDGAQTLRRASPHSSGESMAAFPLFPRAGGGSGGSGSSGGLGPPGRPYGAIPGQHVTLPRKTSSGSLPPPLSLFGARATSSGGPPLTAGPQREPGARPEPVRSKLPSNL
Chain of MDR1 (P-glycoprotein) (P08183 whole entry): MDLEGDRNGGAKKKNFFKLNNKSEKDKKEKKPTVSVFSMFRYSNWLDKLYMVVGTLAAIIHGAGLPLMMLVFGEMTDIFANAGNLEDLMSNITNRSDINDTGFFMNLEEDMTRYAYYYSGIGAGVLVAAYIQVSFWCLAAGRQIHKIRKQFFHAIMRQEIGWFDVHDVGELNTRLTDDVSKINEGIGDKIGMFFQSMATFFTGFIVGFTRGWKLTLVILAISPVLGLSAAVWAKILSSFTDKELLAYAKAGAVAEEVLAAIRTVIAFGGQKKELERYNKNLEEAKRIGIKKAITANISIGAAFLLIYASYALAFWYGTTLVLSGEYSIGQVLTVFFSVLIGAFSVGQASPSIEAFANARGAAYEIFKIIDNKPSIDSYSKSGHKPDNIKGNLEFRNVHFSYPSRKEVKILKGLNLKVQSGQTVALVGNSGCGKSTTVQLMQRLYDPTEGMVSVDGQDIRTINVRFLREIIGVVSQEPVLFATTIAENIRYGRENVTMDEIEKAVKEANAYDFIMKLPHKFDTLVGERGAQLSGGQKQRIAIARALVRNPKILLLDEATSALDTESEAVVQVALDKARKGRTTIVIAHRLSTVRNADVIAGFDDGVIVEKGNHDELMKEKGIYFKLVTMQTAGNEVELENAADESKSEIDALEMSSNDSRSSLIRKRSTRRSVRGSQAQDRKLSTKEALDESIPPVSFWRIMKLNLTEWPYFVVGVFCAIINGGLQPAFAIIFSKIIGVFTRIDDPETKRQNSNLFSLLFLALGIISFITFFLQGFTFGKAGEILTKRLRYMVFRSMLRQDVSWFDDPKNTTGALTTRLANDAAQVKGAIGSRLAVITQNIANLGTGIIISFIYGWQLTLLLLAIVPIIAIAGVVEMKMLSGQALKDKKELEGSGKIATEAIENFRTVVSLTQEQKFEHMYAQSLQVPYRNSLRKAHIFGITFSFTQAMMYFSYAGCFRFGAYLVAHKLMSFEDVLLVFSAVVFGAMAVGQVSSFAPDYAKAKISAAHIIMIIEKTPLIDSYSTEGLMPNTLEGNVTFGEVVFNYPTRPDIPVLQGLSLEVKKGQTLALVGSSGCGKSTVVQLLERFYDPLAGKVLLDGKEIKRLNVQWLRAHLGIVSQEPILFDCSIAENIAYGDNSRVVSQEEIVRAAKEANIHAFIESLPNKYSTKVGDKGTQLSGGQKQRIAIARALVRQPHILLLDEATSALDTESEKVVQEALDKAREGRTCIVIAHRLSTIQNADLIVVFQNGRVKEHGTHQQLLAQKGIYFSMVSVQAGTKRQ
Chain of HCN1 (O60741 whole entry, species assumed): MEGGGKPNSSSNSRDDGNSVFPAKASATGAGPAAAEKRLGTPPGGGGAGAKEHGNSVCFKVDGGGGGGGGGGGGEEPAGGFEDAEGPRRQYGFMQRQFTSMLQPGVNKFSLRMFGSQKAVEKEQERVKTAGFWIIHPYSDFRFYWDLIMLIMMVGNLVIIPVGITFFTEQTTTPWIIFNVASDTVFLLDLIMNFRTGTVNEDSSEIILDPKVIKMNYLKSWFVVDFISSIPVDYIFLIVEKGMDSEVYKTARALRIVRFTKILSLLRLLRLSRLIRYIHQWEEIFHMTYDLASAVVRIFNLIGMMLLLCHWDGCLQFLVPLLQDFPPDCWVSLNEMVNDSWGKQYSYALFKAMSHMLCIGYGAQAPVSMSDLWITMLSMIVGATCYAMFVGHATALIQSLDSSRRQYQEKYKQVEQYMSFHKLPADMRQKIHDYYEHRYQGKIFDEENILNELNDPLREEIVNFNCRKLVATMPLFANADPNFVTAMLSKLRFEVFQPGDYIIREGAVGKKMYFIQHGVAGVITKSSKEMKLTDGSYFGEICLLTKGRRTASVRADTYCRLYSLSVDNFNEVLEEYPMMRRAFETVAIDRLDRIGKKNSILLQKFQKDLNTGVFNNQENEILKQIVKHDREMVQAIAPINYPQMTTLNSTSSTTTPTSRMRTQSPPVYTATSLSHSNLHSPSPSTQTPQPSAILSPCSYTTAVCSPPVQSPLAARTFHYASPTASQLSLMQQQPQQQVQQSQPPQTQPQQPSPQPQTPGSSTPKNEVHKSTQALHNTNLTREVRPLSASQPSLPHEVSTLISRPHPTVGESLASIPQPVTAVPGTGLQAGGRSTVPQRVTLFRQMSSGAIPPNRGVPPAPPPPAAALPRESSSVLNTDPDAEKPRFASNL

Row | Structure (SMILES) | pIC50 [3] | efflux ratio at 1 h, 10 μM [4] | pIC50 [5] | pIC50 [6] | pIC50 [7] | pIC50 [8] | further results
1 | CS(=O)(=O)c1ccc(F)c(C[C@H](N)c2ccccc2-c2noc3ccccc23)n1 [Example 5, (S)-1-[2-(Benzo[d]isoxazol-3-yl)phenyl]-2-[3-fluoro-6-(methylsulfonyl)pyridine-2-yl]ethan-1-amine hydrochloride] |  |  |  |  |  |  | Mechanical analgesia (von Frey) ([1]; 0.1 mg/kg i.p.): partial analgesia; Mechanical analgesia (von Frey), first dose ([1]; 0.2 mg/kg every two hours, first dose): only partial analgesia; Mechanical analgesia (von Frey), subsequent doses ([1]; 0.2 mg/kg every two hours, subsequent doses): increase in analgesia towards full analgesia; Mechanical analgesia (von Frey) ([1]; 0.5 mg/kg i.p.): full analgesia; Mechanical analgesia (von Frey), successive doses over 4 days ([1]; 0.5 mg/kg twice-daily at 8 hour intervals, 4 days): full and sustained analgesia; Mechanical analgesia (von Frey), 4 hours after first injection ([1]; 0.5 mg/kg twice-daily at 8 hour intervals, first injection): little analgesia; ED50 ([1]; Mus musculus, ip, maximal analgesia, n=3-4 mice, read-out: Analgesic ED50): 0.17 mg/kg; Analgesia, paw pressure (Randall Sellito) ([2]; 0.1 mg/kg i.p.): partial analgesia; Analgesia, paw pressure (Randall Sellito) ([2]; 0.5 mg/kg i.p.): full analgesia
2 | Cc1ccc2c(-c3ccccc3[C@@H](N)Cc3nc(S(C)(=O)=O)ccc3F)noc2c1 [Example 11, (S)-2-(3-Fluoro-6-methylsulfonylpyridine-2-yl)-1-[2-(6-methylbenzo[d]isoxazol-3-yl)phenyl]ethan-1-amine hydrochloride] | 5.33 | 5.2 | 4.67 | 4.52 | 5.49 |  | 
3 | CS(=O)(=O)c1ccc(F)c(C[C@H](N)c2ccccc2-c2noc3cc(Cl)ccc23)n1 [Example 13, (S)-1-[2-(6-Chlorobenzo[d]isoxazol-3-yl)phenyl]-2-(3-fluoro-6-methylsulfonylpyridine-2-yl)ethan-1-amine hydrochloride] | 5.85 | 6.2 | 4.82 | < 4.52 | 5.59 | 5.49 | 
4 | Cc1ccc2c(-c3ccccc3[C@@H](N)Cc3nc(S(C)(=O)=O)ccc3C)noc2c1 [Example 19, (S)-2-(3-Methyl-6-methylsulfonylpyridin-2-yl)-1-[2-(6-methylbenzo[d]isoxazol-3-yl)phenyl]ethan-1-amine hydrochloride] | 5.89 | 12.4 | 4.94 | 4.88 | 5.85 | 5.54 | 
5 | CS(=O)(=O)c1ccc(F)c(C[C@H](N)c2ccccc2-c2noc3cc(F)ccc23)n1 [Example 20, (S)-2-(3-Fluoro-6-methylsulfonylpyridin-2-yl)-1-[2-(6-fluorobenzo[d]isoxazol-3-yl)phenyl]ethan-1-amine hydrochloride] | 5.54 | 6.2 | 4.55 | < 4.52 | 5.51 | 4.77 | 
6 | CS(=O)(=O)c1ccc(F)c(C[C@H](N)c2ccccc2-c2noc3ccc(F)cc23)n1 [Example 22, (S)-1-[2-(5-Fluorobenzo[d]isoxazol-3-yl)phenyl]-2-(3-fluoro-6-methylsulfonylpyridin-2-yl)ethan-1-amine hydrochloride] | 5.24 |  | 4.62 | 4.68 |  | 4.56 | 
7 | Cc1ccc(S(C)(=O)=O)nc1C[C@H](N)c1ccccc1-c1noc2cc(Cl)ccc12 [Example 23, (S)-1-[2-(6-Chlorobenzo[d]isoxazol-3-yl)phenyl]-2-(3-methyl-6-methylsulfonylpyridin-2-yl)ethan-1-amine hydrochloride] | 5.92 |  | 4.86 |  | 5.77 |  | 
8 | Cc1ccc(S(C)(=O)=O)nc1C[C@H](N)c1ccccc1-c1noc2cc(F)ccc12 [Example 24, (S)-1-[2-(6-Fluorobenzo[d]isoxazol-3-yl)phenyl]-2-(3-methyl-6-methylsulfonylpyridin-2-yl)ethan-1-amine hydrochloride] | 5.47 | 10.4 | 4.65 | 5.11 | 5.89 | 5.38 | 
9 | CS(=O)(=O)c1ccc(F)c(C[C@H](N)c2ccccc2-c2noc3c(F)cccc23)n1 [Example 26, (S)-1-[2-(7-Fluorobenzo[d]isoxazol-3-yl)phenyl]-2-(3-fluoro-6-methylsulfonylpyridin-2-yl)ethan-1-amine hydrochloride] | 4.82 | 4.2 | 4.72 | < 4.52 | 5.74 | 4.59 | 
10 | COc1cc2c(cc1OC)CC(=O)N(CCCN(C)C[C@H]1Cc3cc(OC)c(OC)cc31)CC2 [ivabradine, Ivabradine] |  |  |  |  |  |  | Effect on GPIAS (behavioural gap detection) [9]: reversed GPIAS; also recorded: restored; Therapeutic window between analgesia and bradycardia [10]: little therapeutic window; Effect on ABR threshold or latency [11]: no significant difference; Effect on GPIAS in noise-exposed guinea pigs showing no behavioural tinnitus ([12]; control experiments, n=3): without effect on GPIAS; also recorded: without effect on gap detection; Effect on reduced GPIAS after noise exposure ([12]; guinea pigs with impaired GPIAS, 5 mg/kg s.c.): rapidly and completely reversed; also recorded: fully restores GPIAS; Kp at 30 min [13]: 0.57
